Consider 24 compounds from US12415816B2, “Benzothiazole derivatives and 7-aza-benzothiazole derivatives as janus kinase 2 inhibitors and uses thereof” (Dana-Farber Cancer Institute, Inc., priority 2018, dated 2025).

For one assay, the target named is JAK2 (Homo sapiens (Human), UniProt O60674). Nature of the assay: JAK2 Z-Lyte biochemical assay. The note with it: commercial JAK2 Z-Lyte assay from Invitrogen. How it is done: The JAK2 Z-Lyte biochemical assay was performed according to manufacturer's instructions (Life Technologies).
JAK2, sequence (O60674 whole entry): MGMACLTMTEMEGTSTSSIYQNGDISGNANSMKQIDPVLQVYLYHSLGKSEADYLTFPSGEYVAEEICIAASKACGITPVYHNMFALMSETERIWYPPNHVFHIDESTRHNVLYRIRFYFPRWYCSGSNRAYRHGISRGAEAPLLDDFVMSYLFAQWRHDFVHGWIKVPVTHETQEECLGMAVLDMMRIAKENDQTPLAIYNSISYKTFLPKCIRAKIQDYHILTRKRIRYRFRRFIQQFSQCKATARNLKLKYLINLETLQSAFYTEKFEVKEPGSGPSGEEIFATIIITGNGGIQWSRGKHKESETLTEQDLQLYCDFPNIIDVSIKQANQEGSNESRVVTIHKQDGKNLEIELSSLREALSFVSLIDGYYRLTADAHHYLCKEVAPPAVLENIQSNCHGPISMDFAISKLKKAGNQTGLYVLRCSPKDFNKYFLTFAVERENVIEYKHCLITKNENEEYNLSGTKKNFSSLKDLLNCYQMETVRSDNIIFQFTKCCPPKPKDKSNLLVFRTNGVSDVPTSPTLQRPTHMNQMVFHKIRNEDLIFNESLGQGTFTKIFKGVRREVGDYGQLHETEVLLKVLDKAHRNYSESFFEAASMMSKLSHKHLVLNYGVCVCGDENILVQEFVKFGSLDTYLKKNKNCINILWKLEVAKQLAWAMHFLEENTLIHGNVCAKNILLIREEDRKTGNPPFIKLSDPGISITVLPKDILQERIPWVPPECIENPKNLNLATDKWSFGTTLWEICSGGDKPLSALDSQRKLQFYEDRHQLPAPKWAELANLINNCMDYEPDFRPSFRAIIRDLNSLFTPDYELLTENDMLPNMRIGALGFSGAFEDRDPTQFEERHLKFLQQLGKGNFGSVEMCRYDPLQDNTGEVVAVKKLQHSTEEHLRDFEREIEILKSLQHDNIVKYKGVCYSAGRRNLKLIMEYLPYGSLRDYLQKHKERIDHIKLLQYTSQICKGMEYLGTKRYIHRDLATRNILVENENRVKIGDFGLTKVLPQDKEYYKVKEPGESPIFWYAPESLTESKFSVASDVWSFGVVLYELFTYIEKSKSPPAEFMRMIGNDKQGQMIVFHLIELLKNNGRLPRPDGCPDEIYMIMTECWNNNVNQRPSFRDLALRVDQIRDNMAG
With `Cc1ccc(NC(=O)Nc2ccc(F)cc2F)cc1Oc1ccc2nc(NC(=O)C3CC3)sc2n1` [Compound I-16, N-(5-(5-(3-(2,4-difluorophenyl)ureido)-2-methylphenoxy)thiazolo[5,4-b]pyridin-2-yl)cyclopropanecarboxamide], the IC50 (in general, the concentration needed to halve the response being measured) was over 10 µM.
`CCN1CCN(Cc2cc(C(=O)Nc3ccc(C)c(-c4ccc5nc(NC(=O)C6CC6)sc5c4)c3)cc(C(F)(F)F)c2)CC1` [Compound I-4] showed an IC50 of 0.881 µM.
Take `O=C(Nc1nc2ccc(-c3ccc4c(c3)N(C(=O)Nc3ccc(F)cc3F)CC4)nc2s1)C1CC1` [Compound I-10, 6-(2-(cyclopropanecarboxamido)thiazolo[5,4-b]pyridin-5-yl)-N-(2,4-difluorophenyl)indoline-1-carboxamide]: the IC50 is over 10 µM.
Still for that read-out and setting: under `CCN1CCN(C(=O)c2cc(NC(=O)c3ccc(C)c(-c4ccc5nc(NC(=O)C6CC6)sc5n4)c3)cc(C(F)(F)F)c2)CC1` [Compound I-6, 3-(2-(cyclopropanecarboxamido)thiazolo[5,4-b]pyridin-5-yl)-N-(3-(4-ethylpiperazine-1-carbonyl)-5-(trifluoromethyl)phenyl)-4-methylbenzamide] stands 1.45 µM; under `CCN1CCN(Cc2cc(C(=O)N3CCc4ccc(-c5ccc6nc(NC(=O)C7CC7)sc6n5)cc43)cc(C(F)(F)F)c2)CC1` [Compound I-11, N-(5-(1-(3-((4-ethylpiperazin-1-yl)methyl)-5-(trifluoromethyl)benzoyl)indolin-6-yl)thiazolo[5,4-b]pyridin-2-yl)cyclopropanecarboxamide], over 10 µM.
The same measure, in the same setting: under `Cc1ccc(C(=O)Nc2ccc(F)cc2F)cc1-c1ccc2nc(NC(=O)C3CC3)sc2n1` [Compound I-1, 3-(2-(cyclopropanecarboxamido)thiazolo[5,4-b]pyridin-5-yl)-N-(2,4-difluorophenyl)-4-methylbenzamide] stands over 10 µM; under `O=C(Nc1nc2ccc(-c3ccc4c(c3)CN(C(=O)Nc3ccc(F)cc3F)C4)nc2s1)C1CC1` [Compound I-15, 5-(2-(cyclopropanecarboxamido)thiazolo[5,4-b]pyridin-5-yl)-N-(2,4-difluorophenyl)isoindoline-2-carboxamide], over 10 µM.
On the same count and under the same terms, under `CCN1CCN(Cc2cc(C(=O)N3Cc4ccc(-c5ccc6nc(NC(=O)C7CC7)sc6n5)cc4C3)cc(C(F)(F)F)c2)CC1` [Compound I-13, N-(5-(2-(3-((4-ethylpiperazin-1-yl)methyl)-5-(trifluoromethyl)benzoyl)isoindolin-5-yl)thiazolo[5,4-b]pyridin-2-yl)cyclopropanecarboxamide] stands over 10 µM; under `CCN1CCN(Cc2ccc(Nc3nc4ccc(Oc5ccc6nc(NC(=O)C7CC7)sc6n5)cc4[nH]3)cc2C(F)(F)F)CC1` [Compound I-25, N-(5-((2-((4-((4-ethylpiperazin-1-yl)methyl)-3-(trifluoromethyl)phenyl)amino)-1H-benzo[d]imidazol-6-yl)oxy)thiazolo[5,4-b]pyridin-2-yl)cyclopropanecarboxamide], 0.63 µM; under `O=C(Nc1nc2ccc(Oc3ccc4c(c3)CN(C(=O)Nc3ccc(F)cc3F)C4)nc2s1)C1CC1` [Compound I-23, 5-((2-(cyclopropanecarboxamido)thiazolo[5,4-b]pyridin-5-yl)oxy)-N-(2,4-difluorophenyl)isoindoline-2-carboxamide], over 10 µM.
`CC(=O)Nc1nc2ccc(-c3cc(C(=O)Nc4ccc(F)cc4F)ccc3C)nc2s1` [Compound I-2, 3-(2-acetamidothiazolo[5,4-b]pyridin-5-yl)-N-(2,4-difluorophenyl)-4-methylbenzamide] came in with an IC50 of over 10 µM.
The compound `CCN1CCN(Cc2cc(C(=O)Nc3ccc(C)c(Oc4ccc5nc(NC(=O)C6CC6)sc5n4)c3)cc(C(F)(F)F)c2)CC1` [Compound I-19, N-(3-((2-(cyclopropanecarboxamido)thiazolo[5,4-b]pyridin-5-yl)oxy)-4-methylphenyl)-3-((4-ethylpiperazin-1-yl)methyl)-5-(trifluoromethyl)benzamide] gave an IC50 of 0.824 µM.
The same measure, in the same setting: under `CCN1CCN(Cc2cc(C(=O)Nc3ccc(C)c(-c4ccc5nc(NC(=O)C6CC6)sc5n4)c3)cc(C(F)(F)F)c2)CC1` [Compound I-8, N-(3-(2-(cyclopropanecarboxamido)thiazolo[5,4-b]pyridin-5-yl)-4-methylphenyl)-3-((4-ethylpiperazin-1-yl)methyl)-5-(trifluoromethyl)benzamide] stands 0.639 µM; under `CCN1CCN(Cc2ccc(NC(=O)Nc3ccc(C)c(Oc4ccc5nc(NC(=O)C6CC6)sc5n4)c3)cc2C(F)(F)F)CC1` [Compound I-17, N-(5-(5-(3-(4-((4-ethylpiperazin-1-yl)methyl)-3-(trifluoromethyl)phenyl)ureido)-2-methylphenoxy)thiazolo[5,4-b]pyridin-2-yl)cyclopropanecarboxamide], over 10 µM.
`CCN1CCN(Cc2cc(C(=O)Nc3cccc(-c4ccc5nc(NC(=O)C6CC6)sc5n4)c3)cc(C(F)(F)F)c2)CC1` [Compound I-7, N-(3-(2-(cyclopropanecarboxamido)thiazolo[5,4-b]pyridin-5-yl)phenyl)-3-((4-ethylpiperazin-1-yl)methyl)-5-(trifluoromethyl)benzamide] showed an IC50 of 0.55 µM.
In turn, `CCN1CCN(Cc2cc(NC(=O)N3Cc4ccc(Oc5ccc6nc(NC(=O)C7CC7)sc6n5)cc4C3)cc(C(F)(F)F)c2)CC1` [Compound I-22, 5-((2-(cyclopropanecarboxamido)thiazolo[5,4-b]pyridin-5-yl)oxy)-N-(3-((4-ethylpiperazin-1-yl)methyl)-5-(trifluoromethyl)phenyl)isoindoline-2-carboxamide] had an IC50 of over 10 µM.
On the same count and under the same terms, under `O=C(Nc1nc2ccc(Oc3ccc4nc(Nc5ccc(F)cc5F)[nH]c4c3)nc2s1)C1CC1` [Compound I-24, N-(5-((2-((2,4-difluorophenyl)amino)-1H-benzo[d]imidazol-6-yl)oxy)thiazolo[5,4-b]pyridin-2-yl)cyclopropanecarboxamide] stands over 10 µM; under `CCN1CCN(Cc2cc(NC(=O)c3ccc(C)c(Oc4ccc5nc(NC(=O)C6CC6)sc5n4)c3)cc(C(F)(F)F)c2)CC1` [Compound I-20, 3-((2-(cyclopropanecarboxamido)thiazolo[5,4-b]pyridin-5-yl)oxy)-N-(3-((4-ethylpiperazin-1-yl)methyl)-5-(trifluoromethyl)phenyl)-4-methylbenzamide], 2.83 µM.
The same measure, in the same setting: under `Cc1ccc(NC(=O)Nc2ccc(F)cc2F)cc1-c1ccc2nc(NC(=O)C3CC3)sc2n1` [Compound I-3, N-(5-(5-(3-(2,4-difluorophenyl)ureido)-2-methylphenyl)thiazolo[5,4-b]pyridin-2-yl)cyclopropanecarboxamide] stands over 10 µM.
Same read-out and setting: under `CCN1CCN(Cc2cc(NC(=O)N3Cc4ccc(-c5ccc6nc(NC(=O)C7CC7)sc6n5)cc4C3)cc(C(F)(F)F)c2)CC1` [Compound I-14, 5-(2-(cyclopropanecarboxamido)thiazolo[5,4-b]pyridin-5-yl)-N-(3-((4-ethylpiperazin-1-yl)methyl)-5-(trifluoromethyl)phenyl)isoindoline-2-carboxamide] stands over 10 µM; under `CCN1CCN(Cc2ccc(NC(=O)N3Cc4ccc(Oc5ccc6nc(NC(=O)C7CC7)sc6n5)cc4C3)cc2C(F)(F)F)CC1` [Compound I-21, 5-((2-(cyclopropanecarboxamido)thiazolo[5,4-b]pyridin-5-yl)oxy)-N-(4-((4-ethylpiperazin-1-yl)methyl)-3-(trifluoromethyl)phenyl)isoindoline-2-carboxamide], over 10 µM; under `CCN1CCN(Cc2cc(NC(=O)Nc3ccc(C)c(-c4ccc5nc(NC(=O)C6CC6)sc5n4)c3)cc(C(F)(F)F)c2)CC1` [Compound I-9, N-(5-(5-(3-(3-((4-ethylpiperazin-1-yl)methyl)-5-(trifluoromethyl)phenyl)ureido)-2-methylphenyl)thiazolo[5,4-b]pyridin-2-yl)cyclopropanecarboxamide], over 10 µM.
`CCN1CCN(Cc2cc(NC(=O)N3CCc4ccc(-c5ccc6nc(NC(=O)C7CC7)sc6n5)cc43)cc(C(F)(F)F)c2)CC1` [Compound I-12, 6-(2-(cyclopropanecarboxamido)thiazolo[5,4-b]pyridin-5-yl)-N-(3-((4-ethylpiperazin-1-yl)methyl)-5-(trifluoromethyl)phenyl)indoline-1-carboxamide]: the IC50 is over 10 µM.

A further assay deals with cell lines or patient-derived xenografts from patients with CRLF2-rearranged B-ALL.
Assay: not given
The note with it: cited from earlier work.
As to `N#CC[C@H](C1CCCC1)n1cc(-c2ncnc3[nH]ccc23)cn1` [Ruxolitinib], the IC50 was over 20 µM.

A further assay concerns JAK2/STAT5. Nature of the assay: Western blots of JAK2/STAT5 inhibition in cells. The assay is classed as cell-based. The note with it: cells treated with indicated concentrations for 4 hours; immunoblotting pJAK2, pSTAT5, c-Myc. How it is done:
FIG. 1. […] Cells were treated with the indicated concentrations of JAK2 inhibitor for 4 hours. Cell pellets were lysed with Cell Lysis Buffer (Cell Signaling Technology) and then immunoblotting was performed with pJAK2 (#3771), pSTAT5 (#4322), c-Myc (#9402), JAK2 (#3230), STAT5 (#9363 or 94205), and β-actin (#4967 or 12620) antibodies from Cell Signaling Technology.
FIG. 2. […] Cells were treated with the indicated concentrations of JAK2 inhibitor for 4 hours. Cell pellets were lysed with Cell Lysis Buffer (Cell Signaling Technology) and then immunoblotting was performed with pJAK2 (#3771), pSTAT5 (#4322), c-Myc (#9402), JAK2 (#3230), STAT5 (#9363 or 94205), and β-actin (#4967 or 12620) antibodies from Cell Signaling Technology.
(In general: Immunoblotting shows a protein as a band on a membrane.)
Regarding `CCN1CCN(C(=O)c2cc(NC(=O)c3ccc(C)c(-c4ccc5nc(NC(=O)C6CC6)sc5n4)c3)cc(C(F)(F)F)c2)CC1` [Compound I-6, 3-(2-(cyclopropanecarboxamido)thiazolo[5,4-b]pyridin-5-yl)-N-(3-(4-ethylpiperazine-1-carbonyl)-5-(trifluoromethyl)phenyl)-4-methylbenzamide], the “JAK2/STAT5 inhibition (Western blots)” value is “JAK2/STAT5 inhibition”.
Same read-out and setting: under `CCN1CCN(Cc2cc(C(=O)Nc3ccc(C)c(-c4ccc5nc(NC(=O)C6CC6)sc5n4)c3)cc(C(F)(F)F)c2)CC1` [Compound I-8, N-(3-(2-(cyclopropanecarboxamido)thiazolo[5,4-b]pyridin-5-yl)-4-methylphenyl)-3-((4-ethylpiperazin-1-yl)methyl)-5-(trifluoromethyl)benzamide] stands “JAK2/STAT5 inhibition”.
